# Results: patent US20250288564A1, “DIHYDROBERBERINE COMPOSITION AND USE THEREOF” (NANJING NUTRABUILDING BIO-TECH CO., LTD., priority 2022, published 2025)
# Tests used:
# [1] = compared with berberine, background statement; cited from earlier work
# [2] = tested on: Bacteroides and Firmicutes; experiment: Abundance ratio of Bacteroides and Firmicutes in mouse feces; type: in vivo, mice; conditions: DHB 100 mg/kg, 4 weeks, FIG. 3
# From the text: Experimental method: After a week of adaptive feeding, mice were randomly divided into four groups according to sex and weight: group 1, control group, n=10; group 2, normal+DHB group, n=10; group 3, high-fat-high-sugar group, n=10; and group 4, high-fat-high-sugar+DHB group, n=10. High-fat-high-sugar group (group 3) and high-fat-high-sugar+DHB group (group 4) were given high-fat and high-sugar feed (containing 35% fat, 18% protein and 47% carbohydrate), while the control group and normal+DHB group were given normal feed. After eight weeks, blood was taken from the tail vein to detect blood sugar, and the groups 3 and 4 were given high-fat and high-sugar feed, while the control group and normal+DHB group (groups 1 and 2) were given basic feed until the end of the experiment. Then, groups 2 and 4 were administered DHB at 100 mg/kg (dissolved in physiological saline) for 4 weeks, and fecal samples were taken on days 0, 14 and 28. The maximum dose of DHB refers to the usual dose of daily health care, and the dosage is set to 200 mg/kg. The specific gavage scheme is: dissolve DHB in water and gavage once a day according to the weight of mice, while the control group gavage with the same amount of pure water. […] After completing the classification of data species, the relative abundance of each species was analyzed. […]
# [3] = tested on: Akkermansia muciniphila; experiment: Relative abundance of microbiota in feces of mice (16S rDNA sequencing); type: in vivo; conditions: DHB 100 mg/kg gavage once a day for 4 weeks, FIG. 2A
# From the text: (§1) Experimental method: After a week of adaptive feeding, mice were randomly divided into four groups according to sex and weight: group 1, control group, n=10; group 2, normal+DHB group, n=10; group 3, high-fat-high-sugar group, n=10; and group 4, high-fat-high-sugar+DHB group, n=10. High-fat-high-sugar group (group 3) and high-fat-high-sugar+DHB group (group 4) were given high-fat and high-sugar feed (containing 35% fat, 18% protein and 47% carbohydrate), while the control group and normal+DHB group were given normal feed. After eight weeks, blood was taken from the tail vein to detect blood sugar, and the groups 3 and 4 were given high-fat and high-sugar feed, while the control group and normal+DHB group (groups 1 and 2) were given basic feed until the end of the experiment. Then, groups 2 and 4 were administered DHB at 100 mg/kg (dissolved in physiological saline) for 4 weeks, and fecal samples were taken on days 0, 14 and 28. The maximum dose of DHB refers to the usual dose of daily health care, and the dosage is set to 200 mg/kg. The specific gavage scheme is: dissolve DHB in water and gavage once a day according to the weight of mice, while the control group gavage with the same amount of pure water. Analysis of the relative abundance of intestinal flora: Four samples of mouse feces were randomly taken from each group. The samples were first extracted for DNA, 16S rDNA was amplified by PCR, and then sequenced. After completing the classification of data species, the relative abundance of each species was analyzed.
# [4] = tested on: Lactobacillus acidophilus; experiment: as above; type: in vivo; conditions: DHB 100 mg/kg gavage once a day for 4 weeks, FIG. 2A
# From the text: as §1
# [5] = tested on: Faecalibacterium Prausnitzii; experiment: as above; type: in vivo; conditions: DHB 100 mg/kg gavage once a day for 4 weeks, FIG. 2A
# From the text: as §1
# [6] = tested on: Desulfovibrio; experiment: as above; type: in vivo; conditions: DHB 100 mg/kg gavage once a day for 4 weeks, FIG. 2B
# From the text: as §1
# [7] = tested on: Klebsiella pneumoniae; experiment: as above; type: in vivo; conditions: DHB 100 mg/kg gavage once a day for 4 weeks, FIG. 2B
# From the text: as §1
# [8] = tested on: Bacteroides fragilis; experiment: as above; type: in vivo; conditions: DHB 100 mg/kg gavage once a day for 4 weeks, FIG. 2A
# From the text: as §1
# [9] = tested on: acute colitis model; experiment: DSS-induced acute colitis model in mice (DAI, colon pathology); type: in vivo; conditions: 3% DSS for 9 days, treatment group DSS+DHB, DHB 50 mg/kg daily
# From the text: Experimental method: Thirty 4-6-week-old mice, 15 males and 15 females, were selected for adaptive feeding for 7 days in advance. They were randomly divided into control group (CON), model group (DSS) and treatment group (DSS+DHB), with 10 mice in each group. The model group and the treatment group were gavaged with 3% dextran sodium sulfate (DSS) for 9 days to establish an acute colitis model, while the control group was gavaged with the same amount of normal saline every day. The weight, feces and rectal bleeding of mice were recorded every day, and the disease activity index (DAI) was used to evaluate the condition of colitis. The DAI value was obtained by adding all the scores and dividing them by three. Mice in the treatment group were given DHB at a daily dose of 50 mg/kg. On the 10th day, blood was taken from the orbit of each mouse, and then it was killed. Colon tissues were collected, fixed in 4% paraformaldehyde solution and stored at −80° C. for subsequent analysis. The pathological damage of colon tissue was examined by hematoxylin-eosin staining and Alxin blue staining. [table]
# [10] = tested on: Akkermansia muciniphila; experiment: Absolute amount of Akkermansia muciniphila in mouse feces (qPCR); type: in vivo, mice; conditions: DHB 100 mg/kg, 4 weeks, FIG. 4
# From the text: Experimental method: After a week of adaptive feeding, mice were randomly divided into four groups according to sex and weight: group 1, control group, n=10; group 2, normal+DHB group, n=10; group 3, high-fat-high-sugar group, n=10; and group 4, high-fat-high-sugar+DHB group, n=10. High-fat-high-sugar group (group 3) and high-fat-high-sugar+DHB group (group 4) were given high-fat and high-sugar feed (containing 35% fat, 18% protein and 47% carbohydrate), while the control group and normal+DHB group were given normal feed. After eight weeks, blood was taken from the tail vein to detect blood sugar, and the groups 3 and 4 were given high-fat and high-sugar feed, while the control group and normal+DHB group (groups 1 and 2) were given basic feed until the end of the experiment. […]
# Determination of absolute amount of Akkermansia muciniphila in mouse feces: The colon feces of mice were collected, the absolute amount of Akkermansia mucinipha in each gram of feces was detected, and the influence of the composition of the invention on the absolute amount of Akkermansia mucinipha in the intestines of normal and high-fat-high-sugar mice was analyzed. […] The data is expressed as the logarithm of the number of bacteria per gram of feces (Log 10), and the results are shown in FIGS. 2-4.
# [11] = tested on: Akkermansia muciniphila; experiment: Relative abundance of microbiota in feces of volunteers (16s sequencing); type: in vivo, human; conditions: 200 mg DHB every day, 3-week experiment, FIG. 1A
# Experimental: (§2) Experimental method: Six volunteers (three males and three females) were recruited to obtain relevant health data, and it was confirmed that they had not taken antibiotics or probiotics in the previous three months, and were healthy and had no chronic diseases. A 3-week experiment was designed. Volunteers had 30 minutes of moderate-intensity exercise every day, and ensured regular work and rest, reasonable diet, and no smoking or drinking. They were administered 200 mg of dihydroberberine (DHB) every day, and fecal samples were collected on days 0, 7, 14 and 21 of the experiment, and the corresponding bacterial species were analyzed. Before the experiment, fecal samples of each volunteer were collected, and species information was obtained through genomic DNA extraction, PCR amplification of 16s RNA and database comparison.
# [12] = tested on: Lactobacillus acidophilus; experiment: as above; type: in vivo, human; conditions: 200 mg DHB every day, 3-week experiment, FIG. 1A
# Experimental: as §2
# [13] = tested on: Faecalibacterium Prausnitzii; experiment: as above; type: in vivo, human; conditions: 200 mg DHB every day, 3-week experiment, FIG. 1A
# Experimental: as §2
# [14] = tested on: Desulfovibrio; experiment: as above; type: in vivo, human; conditions: 200 mg DHB every day, 3-week experiment, FIG. 1B
# Experimental: as §2
# [15] = tested on: Klebsiella pneumoniae; experiment: as above; type: in vivo, human; conditions: 200 mg DHB every day, 3-week experiment, FIG. 1B
# Experimental: as §2
# [16] = tested on: Bacteroides fragilis; experiment: as above; type: in vivo, human; conditions: 200 mg DHB every day, 3-week experiment, FIG. 1A
# Experimental: as §2
# [17] = high-fat-high-sugar mice: group 4 (+DHB) compared with group 3
# [18] = normal feed mice: group 2 (normal+DHB) compared with group 1 (control)
structure (smiles),measurement,setting,value
COc1ccc2c(c1OC)CN1CCc3cc4c(cc3C1=C2)OCO4 [dihydroberberine],water solubility relative to berberine,[1],higher water solubility
same,increase of ratio of Bacteroides to Firmicutes,[2]; [17],0.51
same,increase of ratio of Bacteroides to Firmicutes,[2]; [18],0.36
same,increase of relative abundance level of Akkermansia muciniphila,[3],0.09%
same,increase of relative abundance level of Lactobacillus acidophilus,[4],0.19%
same,increase of relative abundance level of Faecalibacterium Prausnitzii,[5],0.14%
same,decrease of relative abundance level of Desulfovibrio,[6],0.08%
same,decrease of relative abundance level of Klebsiella pneumoniae,[7],0.11%
same,increase of relative abundance level of Bacteroides fragilis,[8],0.10%
same,"intestinal pathological changes (colon tissue, hematoxylin-eosin and Alxin blue staining)",[9]; FIGS. 5A-5C,significantly improved the integrity of crypt structure
same,DAI score (disease activity index),[9]; model group close to 3,about 1.1
same,increase of logarithm number of Akkermansia muciniphila per gram of feces,[10]; [17],0.55 order of magnitude
same,increase of logarithm number of Akkermansia muciniphila per gram of feces,[10]; [18],0.65 order of magnitude
same,increase of relative abundance level of Akkermansia muciniphila,[11],0.09%
same,increase of relative abundance level of Lactobacillus acidophilus,[12],0.20%
same,increase of relative abundance level of Faecalibacterium Prausnitzii,[13],0.15%
same,decrease of relative abundance level of Desulfovibrio,[14],0.14%
same,decrease of relative abundance level of Klebsiella pneumoniae,[15],0.12%
same,increase of relative abundance level of Bacteroides fragilis,[16],0.11%
